Patent US20240180883A1, “TREATMENT OF MIGRAINE” (Allergan Pharmaceuticals International Limited, priority 2020, published 2024)
Several values for one entry are separate records, joined by “and”; a condition that tells them apart may be missing. Identical values can stand only once.

Tests used:
[1] = Phase 1 hepatic impairment PK study, single 100 mg dose; format: in vivo, human; settings: 100 mg single oral dose; for AUC(0-inf) / AUC(0-t) / Cmax / Tmax / Vd/F / half-life: both sexes, human, plasma, po, 100 mg; for Tmax: read-out: Tmax, median (min-max); for Vd/F: read-out: Vz/F, mean ±SD; for half-life: read-out: t1/2, mean ±SD (converted)
Description: The study was intended to enroll 24 male and female participants with hepatic impairment (8 mildly impaired, 8 moderately impaired, and 8 severely impaired) and 8 healthy male and female participants with normal hepatic function, aged 18 through 75 years, who were matched closely to the age, weight, and gender of the hepatically impaired groups.
Participants with hepatic impairment were categorized according to the Child-Pugh classification. Participants with moderate hepatic impairment (Child-Pugh B classification) were not enrolled until 4 patients with mild hepatic impairment (Child-Pugh A classification) had completed the study; participants with severe hepatic impairment (Child-Pugh C classification) were not to be enrolled until 4 patients with moderate hepatic impairment had completed the study. […] Healthy participants with normal hepatic function were recruited after participants with hepatic impairment had been enrolled in the study, in order to match them as closely as possible to the hepatically impaired participants with respect to age, weight, and gender. Participants with normal hepatic function were matched specifically according to age, not to exceed 5 years between the means of the normal group and the 3 hepatically impaired groups. Weight range deviated<20% between the means of the normal group and the 3 hepatically impaired groups; and gender, as much as possible to match the ratio of the normal hepatic function group to the 3 hepatically impaired groups.
Fasting continued for 4 hours after dosing. Because minimal to no accumulation was expected after once daily repeated dosing for ubrogepant, a single-dose study was considered adequate to satisfy the objectives of the present study.
(§1) Sampling was also done at the following times for plasma protein binding determinations: Day 1 at 0 hour (predose) and 2 hours post dose.

[2] = Ubrogepant clinical pharmacokinetics summary; format: in vivo, human
Protocol: Ubrogepant is excreted mainly through the biliary/fecal route, while the renal route is a minor route of elimination.
In clinical studies, ubrogepant was administered without regard to food. […]

[3] = test system: plasma protein; assay: Plasma protein binding by equilibrium dialysis (hepatic impairment study); format: in vitro ADME, human
Protocol: as §1
Protein binding blood samples were collected from all participants starting on Day 1 at 0 hour (predose) and at 2 hours post-dose. The pre-dose samples collected prior to dosing for each participants were spiked with known quantities of ubrogepant.

[4] = target: P-gp (Homo sapiens, UniProt P08183); assay: P-gp transporter substrate in vitro; format: in vitro ADME
[5] = Phase 1 food effect study, 100 mg tablet fed vs fasted; format: in vivo, human; settings: for AUC(0-inf) / AUC(0-t) / Cmax / Tmax / Vd/F / half-life: both sexes, human, plasma, oral, 100 mg; for Vd/F: read-out: Vz/F, arithmetic mean (CV %); for half-life: read-out: t1/2, mean (CV %) (converted)
Protocol: The treatments were administered in 1 of 2 sequences in periods 1 and 2 with a washout period of at least 7 days between each treatment.
Eighteen healthy participants with a mean age of 28.4 years (range: 20 to 39 years) were enrolled. The majority of participants were male (14 of 18, 77.8%). […] Mean (SD) weight was 75.99 ([…]) kg and mean (SD) BMI was 25.03 (3.290) kg/m2. Participants were randomly assigned one of two treatments in 1 of 2 sequences in Periods 1 and 2, with a washout period of at least 7 days between each study treatment.
For fed participants, the standardized high-fat (approximately 50% of total caloric content of the meal) and high-calorie (total of approximately 800 to 1000 calories) breakfast derived approximately 150 calories from protein, 250 calories from carbohydrates, and 500 to 600 calories from fat. An example of a high-fat breakfast meal would be 2 eggs fried in butter, 2 strips of bacon, 2 slices of toast with butter, 4 ounces of hash brown potatoes, and 8 ounces of whole milk. […] Participants who were randomly assigned to receive ubrogepant under fed conditions were required to consume the high-fat, high-calorie breakfast in full. For all participants, no food was allowed for 4 hours following study treatment administration. Water was allowed as desired except for 1 hour before and 1 hour after study treatment administration.

[6] = single dose [14C]-ubrogepant, healthy male subjects

P-gp, sequence (P08183 whole entry): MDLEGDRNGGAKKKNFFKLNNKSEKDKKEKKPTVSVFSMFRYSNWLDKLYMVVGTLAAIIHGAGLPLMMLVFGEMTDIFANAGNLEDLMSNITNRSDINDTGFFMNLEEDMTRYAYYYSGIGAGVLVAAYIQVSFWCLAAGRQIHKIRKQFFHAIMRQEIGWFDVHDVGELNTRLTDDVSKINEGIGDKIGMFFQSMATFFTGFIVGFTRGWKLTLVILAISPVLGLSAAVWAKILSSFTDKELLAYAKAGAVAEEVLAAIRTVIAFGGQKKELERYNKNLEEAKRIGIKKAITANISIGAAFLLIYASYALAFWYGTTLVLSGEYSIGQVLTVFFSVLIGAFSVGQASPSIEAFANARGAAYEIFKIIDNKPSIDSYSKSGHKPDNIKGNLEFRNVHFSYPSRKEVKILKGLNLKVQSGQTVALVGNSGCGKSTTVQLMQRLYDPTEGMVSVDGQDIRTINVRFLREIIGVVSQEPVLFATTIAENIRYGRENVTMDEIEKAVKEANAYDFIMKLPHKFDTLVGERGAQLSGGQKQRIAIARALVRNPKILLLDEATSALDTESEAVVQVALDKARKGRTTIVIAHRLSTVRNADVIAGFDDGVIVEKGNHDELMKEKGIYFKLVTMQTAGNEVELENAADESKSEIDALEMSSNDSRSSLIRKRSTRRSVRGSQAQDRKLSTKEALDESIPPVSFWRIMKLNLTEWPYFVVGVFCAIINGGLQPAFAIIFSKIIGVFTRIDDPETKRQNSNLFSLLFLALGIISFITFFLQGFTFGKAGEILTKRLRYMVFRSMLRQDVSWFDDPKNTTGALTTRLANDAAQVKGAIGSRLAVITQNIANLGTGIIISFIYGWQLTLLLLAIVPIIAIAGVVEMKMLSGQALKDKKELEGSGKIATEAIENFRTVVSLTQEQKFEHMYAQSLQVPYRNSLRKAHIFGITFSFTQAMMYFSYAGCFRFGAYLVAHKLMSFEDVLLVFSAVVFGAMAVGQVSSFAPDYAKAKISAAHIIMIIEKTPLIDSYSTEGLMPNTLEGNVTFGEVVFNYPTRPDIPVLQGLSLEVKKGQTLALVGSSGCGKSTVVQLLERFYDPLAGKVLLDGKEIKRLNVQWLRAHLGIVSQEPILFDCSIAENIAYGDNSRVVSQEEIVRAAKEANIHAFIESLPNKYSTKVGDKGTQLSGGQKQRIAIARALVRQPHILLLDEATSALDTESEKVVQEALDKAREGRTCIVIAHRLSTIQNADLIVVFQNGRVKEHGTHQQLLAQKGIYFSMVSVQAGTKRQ

For `C[C@@H]1[C@H](c2ccccc2)C[C@H](NC(=O)c2cnc3c(c2)C[C@@]2(C3)C(=O)Nc3ncccc32)C(=O)N1CC(F)(F)F` [ubrogepant, (3′S)-N-((3S,5S,6R)-6-methyl-2-oxo-5-phenyl-1-(2,2,2-trifluoroethyl)piperidin-3-yl)-2′-oxo-1′,2′,5,7-etrahydrospiro[cyclopenta[b]pyridine-6,3′-pyrrolo[2,3-b]pyridine]-3-carboxamide], the “CL/F, mean ±SD” value ([1]; mild hepatic impairment) was 66.38 ± 26.15 L/h, the “AUC0-∞ (exposure) higher than in normal hepatic function” value ([1]; moderate hepatic impairment) was 52% and 50% and the “CL/F, mean ±SD” value ([1]; moderate hepatic impairment) was 49.78 ± 23.84 L/h. For the same compound, the “Cmax higher than in normal hepatic function” value ([1]; moderate hepatic impairment) was 25%, the “CL/F, mean ±SD” value ([1]; normal hepatic function) was 69.01 ± 23.54 L/h and the “AUC0-∞ (exposure) higher than in normal hepatic function” value ([1]; severe hepatic impairment) was 115%. For the same compound, the “CL/F, mean ±SD” value ([1]; severe hepatic impairment) was 31.23 ± 7.49 L/h, the “Cmax higher than in normal hepatic function” value ([1]; severe hepatic impairment) was 40% and the AUC(0-inf) ([1]; mild hepatic impairment, read-out: AUC0-inf, mean ±SD) was 1760 ± 775 ng·h/mL. The AUC(0-t) ([1]; mild hepatic impairment, read-out: AUC0-t, mean ±SD) was 1750 ± 767 ng·h/mL, the Cmax ([1]; mild hepatic impairment, read-out: Cmax, mean ±SD) was 411 ± 190 ng/mL and the Tmax ([1]; mild hepatic impairment) was 1.5 h. For the same compound, the Vd/F ([1]; mild hepatic impairment) was 559 ± 358 L, the half-life ([1]; mild hepatic impairment) was 6.56 ± 5.93 h and the AUC(0-t) ([1]; mild-impaired, read-out: Geometric LSM AUC0-t, Test) was 1610 ng·h/mL. It also gave an AUC(0-inf) ([1]; mild-impaired, read-out: Geometric LSM AUC0-∞, Test) of 1630 ng·h/mL, a Cmax ([1]; mild-impaired, read-out: Geometric LSM Cmax, Test) of 375 ng/mL and an AUC(0-inf) ([1]; moderate hepatic impairment, read-out: AUC0-inf, mean ±SD) of 2820 ± 2060 ng·h/mL. It also gave an AUC(0-t) ([1]; moderate hepatic impairment, read-out: AUC0-t, mean ±SD) of 2780 ± 2020 ng·h/mL, a Cmax ([1]; moderate hepatic impairment, read-out: Cmax, mean ±SD) of 480 ± 189 ng/mL and a Tmax ([1]; moderate hepatic impairment) of 2 h. It also gave a Vd/F ([1]; moderate hepatic impairment) of 365 ± 130 L, a half-life ([1]; moderate hepatic impairment) of 5.95 ± 2.68 h and an AUC(0-t) ([1]; moderate-impaired, read-out: Geometric LSM AUC0-t, Test) of 2300 ng·h/mL. It also gave an AUC(0-inf) ([1]; moderate-impaired, read-out: Geometric LSM AUC0-∞, Test) of 2320 ng·h/mL, a Cmax ([1]; moderate-impaired, read-out: Geometric LSM Cmax, Test) of 449 ng/mL and an AUC(0-inf) ([1]; normal hepatic function, read-out: AUC0-inf, mean ±SD) of 1600 ± 533 ng·h/mL. It also gave an AUC(0-t) ([1]; normal hepatic function, read-out: AUC0-t, mean ±SD) of 1590 ± 530 ng·h/mL, a Cmax ([1]; normal hepatic function, read-out: Cmax, mean ±SD) of 406 ± 219 ng/mL and an AUC(0-t) ([1]; normal hepatic function, read-out: Geometric LSM AUC0-t, Reference) of 1510 ng·h/mL. It also gave an AUC(0-inf) ([1]; normal hepatic function, read-out: Geometric LSM AUC0-∞, Reference) of 1520 ng·h/mL, a Cmax ([1]; normal hepatic function, read-out: Geometric LSM Cmax, Reference) of 360 ng/mL and a Tmax ([1]; normal hepatic function) of 1.75 h. It also gave a Vd/F ([1]; normal hepatic function) of 533 ± 320 L, a half-life ([1]; normal hepatic function) of 5.6 ± 3.68 h and an AUC(0-inf) ([1]; severe hepatic impairment, read-out: AUC0-inf, mean ±SD) of 3330 ± 705 ng·h/mL. It also gave an AUC(0-t) ([1]; severe hepatic impairment, read-out: AUC0-t, mean ±SD) of 3310 ± 704 ng·h/mL, a Cmax ([1]; severe hepatic impairment, read-out: Cmax, mean ±SD) of 509 ± 75.8 ng/mL and a Tmax ([1]; severe hepatic impairment) of 1.5 h. It also gave a Vd/F ([1]; severe hepatic impairment) of 248 ± 29.9 L, a half-life ([1]; severe hepatic impairment) of 5.62 ± 0.62 h and an AUC(0-t) ([1]; severe-impaired, read-out: Geometric LSM AUC0-t, Test) of 3250 ng·h/mL. The AUC(0-inf) ([1]; severe-impaired, read-out: Geometric LSM AUC0-∞, Test) was 3270 ng·h/mL, the Cmax ([1]; severe-impaired, read-out: Geometric LSM Cmax, Test) was 505 ng/mL and the renal route elimination ([2]; human, in vivo) was < 10%. For the same compound, the “mean apparent oral clearance (CL/F)” value ([2]; human, in vivo, po) was “approximately 87 L/hr”, the half-life ([2]; human, plasma, oral, read-out: elimination half-life) was 5 to 7 h and the “time of peak plasma concentrations” value ([2]; oral administration) was “approximately 1.5 hours”. The “dose recovered as unchanged ubrogepant in feces” value [2, 6] was 42%, the “dose recovered as unchanged ubrogepant in urine” value [2, 6] was 6% and the “mean apparent central volume of distribution (V/L)” value ([2]; single dose oral administration) was “approximately 350 L”. For the same compound, the “change in AUC” value ([2]; with a high-fat meal) was “no change in AUC”, the “delay of time to maximum plasma concentration” value ([2]; with a high-fat meal) was 2 h and the “reduction in Cmax” value ([2]; with a high-fat meal) was 22%. For the same compound, the “percentage of protein-bound ubrogepant” value ([3]; 0 hr (predose sample spiked with ubrogepant), mild-impaired) was 88.87 ± 1.12%, the “percentage of protein-bound ubrogepant” value ([3]; 0 hr (predose sample spiked with ubrogepant), moderate-impaired) was 87.42 ± 1.89% and the “percentage of protein-bound ubrogepant” value ([3]; 0 hr (predose sample spiked with ubrogepant), normal hepatic function) was 88.52 ± 0.84%. The “percentage of protein-bound ubrogepant” value ([3]; 0 hr (predose sample spiked with ubrogepant), severe-impaired) was 84.58 ± 0.91%, the “percentage of protein-bound ubrogepant” value ([3]; 2 hr post-dose, 100 mg, mild-impaired) was 89.9% and 89.85 ± 1.33% and the “percentage of protein-bound ubrogepant” value ([3]; 2 hr post-dose, 100 mg, moderate-impaired) was 88.2% and 88.24 ± 1.02%. The “percentage of protein-bound ubrogepant” value ([3]; 2 hr post-dose, 100 mg, normal hepatic function) was 89.3% and 89.28 ± 1.54%, the “percentage of protein-bound ubrogepant” value ([3]; 2 hr post-dose, 100 mg, severe-impaired) was 85.3% and 85.27 ± 0.94% and the “substrate of P-gp transporter” value [4] was “substrate”. The “effect of a high fat meal on extent of exposure (AUC0-t and AUC0-inf)” value ([5]; 1 × 100 mg tablet) was “did not affect the extent of exposure”, the “CL/F, arithmetic mean (CV %)” value ([5]; 1 × 100 mg tablet, fasted) was 77.29 (29.9) L/h and the “Tmax, median (minimum − maximum)” value ([5]; 1 × 100 mg tablet, fasted) was 1.00 (1.00-3.00) h. For the same compound, the “t1/2, mean (CV %)” value ([5]; 1 × 100 mg tablet, fasted) was 4.99 (23.0) h, the “CL/F, arithmetic mean (CV %)” value ([5]; 1 × 100 mg tablet, fed) was 76.55 (24.1) L/h and the “Tmax, median (minimum − maximum)” value ([5]; 1 × 100 mg tablet, fed) was 3.00 (0.50-4.00) h. The “t1/2, mean (CV %)” value ([5]; 1 × 100 mg tablet, fed) was 4.64 (11.1) h, the “maximum exposure (Cmax) lower under fed versus fasted conditions” value ([5]; 1 × 100 mg tablet, high fat meal) was “approximately 22%” and the AUC(0-inf) ([5]; 1 × 100 mg tablet, fasted, read-out: AUC0-inf, geometric mean (geometric CV %)) was 1360 ng·h/mL. The AUC(0-t) ([5]; 1 × 100 mg tablet, fasted, read-out: AUC0-t, geometric mean (geometric CV %)) was 1330 ng·h/mL, the Cmax ([5]; 1 × 100 mg tablet, fasted, read-out: Cmax, geometric mean (geometric CV %)) was 334 ng/mL and the AUC(0-inf) ([5]; 1 × 100 mg tablet, fasted, read-out: GLSM AUC0-inf) was 1370 ng·h/mL. The AUC(0-t) ([5]; 1 × 100 mg tablet, fasted, read-out: GLSM AUC0-t) was 1340 ng·h/mL, the Cmax ([5]; 1 × 100 mg tablet, fasted, read-out: GLSM Cmax) was 336 ng/mL and the Tmax ([5]; 1 × 100 mg tablet, fasted, read-out: Tmax, median (minimum − maximum)) was 1 h. The Vd/F ([5]; 1 × 100 mg tablet, fasted) was 536 L, the half-life ([5]; 1 × 100 mg tablet, fasted) was ~5 h and the AUC(0-inf) ([5]; 1 × 100 mg tablet, fed, read-out: AUC0-inf, geometric mean (geometric CV %)) was 1340 ng·h/mL. For the same compound, the AUC(0-t) ([5]; 1 × 100 mg tablet, fed, read-out: AUC0-t, geometric mean (geometric CV %)) was 1320 ng·h/mL, the Cmax ([5]; 1 × 100 mg tablet, fed, read-out: Cmax, geometric mean (geometric CV %)) was 262 ng/mL and the AUC(0-inf) ([5]; 1 × 100 mg tablet, fed, read-out: GLSM AUC0-inf) was 1350 ng·h/mL. The AUC(0-t) ([5]; 1 × 100 mg tablet, fed, read-out: GLSM AUC0-t) was 1330 ng·h/mL, the Cmax ([5]; 1 × 100 mg tablet, fed, read-out: GLSM Cmax) was 263 ng/mL and the Tmax ([5]; 1 × 100 mg tablet, fed, read-out: Tmax, median (minimum − maximum)) was 3 h. The Vd/F ([5]; 1 × 100 mg tablet, fed) was 507 L, the half-life ([5]; 1 × 100 mg tablet, fed) was ~5 h and the Tmax ([5]; 1 × 100 mg tablet, read-out: Tmax median difference (fed−fasted)) was 2 h. The “GMR AUC0-inf” value ([5]; fed vs fasted) was 98.89%, the “GMR AUC0-t” value ([5]; fed vs fasted) was 98.88% and the “GMR Cmax” value ([5]; fed vs fasted) was 78.39%.
